In the supplement of paper PMC8960247:
Structures can show the parent of a compound that is named as a salt. ± gives the standard error.

Legend:
621-102 (TSC2-deficient) = assay: relative viability vs DMSO; higher = less cytotoxic; conditions: serum: 10% FBS, 72 h
621-103 (TSC2-rescued) = assay: as above; conditions: serum: 10% FBS, 72 h
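Note: immortalized renal angiomyolipoma cells stably carrying empty vector or TSC2, dosed in 384-well plates in DMEM, viability normalized to vehicle-treated wells within each plate.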

| Compound | relative viability (621-102 (TSC2-deficient); 0.0001 µM) | relative viability (621-102 (TSC2-deficient); 0.001 µM) | relative viability (621-102 (TSC2-deficient); 0.01 µM) | relative viability (621-102 (TSC2-deficient); 0.1 µM) | relative viability (621-102 (TSC2-deficient); 1 µM) | relative viability (621-102 (TSC2-deficient); 10 µM) | relative viability (621-103 (TSC2-rescued); 0.0001 µM) | relative viability (621-103 (TSC2-rescued); 0.001 µM) | relative viability (621-103 (TSC2-rescued); 0.01 µM) | relative viability (621-103 (TSC2-rescued); 0.1 µM) | relative viability (621-103 (TSC2-rescued); 1 µM) | relative viability (621-103 (TSC2-rescued); 10 µM) |
| --- | --- | --- | --- | --- | --- | --- | --- | --- | --- | --- | --- | --- |
| CNC[C@H](O)c1ccc(O)c(O)c1 [Epinephrine bitartrate] | 119 ± 1.4% | 118 ± 1.5% | 105 ± 4% | 101 ± 2.4% | 103 ± 1.3% | 100 ± 1.5% | 102 ± 2.1% | 95.4 ± 4.3% | 93.4 ± 4.4% | 92.99 ± 0.3% | 96 ± 1.2% | 95.31 ± 0.25% |
| COC(=O)Nc1ccc(-c2nc(N3CCOCC3)c3cnn(C4CCN(C(=O)OC)CC4)c3n2)cc1 [WYE-354] | 89.9 ± 1.9% | 84.2 ± 1.1% | 79.5 ± 4.5% | 84.3 ± 5.7% | 49.3 ± 3.1% | 61.2 ± 3.3% | 102 ± 1.1% | 103.2 ± 0.11% | 102 ± 1.2% | 105.7 ± 1% | 68.1 ± 0.21% | 74.5 ± 2.2% |
| C[C@@H](Oc1cc(-n2cnc3ccc(CN4CCN(C)CC4)cc32)sc1C(N)=O)c1ccccc1C(F)(F)F | 97.01 ± 0.82% | 88.1 ± 1.3% | 64.5 ± 3.1% | 45.3 ± 0.63% | 40.7 ± 3.1% | 27.1 ± 3.8% | 100 ± 1.7% | 71.9 ± 4.3% | 60.2 ± 0.98% | 48.49 ± 0.29% | 40.7 ± 0.62% | 9.95 ± 0.89% |
| CCCN[C@H]1CCc2nc(N)sc2C1 [Pramipexole dihydrochloride monohydrate] | 91.3 ± 7.3% | 84.5 ± 4.2% | 101 ± 2.4% | 102 ± 1.4% | 91.4 ± 1.3% | 94.4 ± 1.9% | 98.1 ± 4.4% | 95.62 ± 0.72% | 101 ± 2.9% | 101 ± 1.8% | 105 ± 2.4% | 100.5 ± 0.52% |
| O=C1NC(=O)/C(=C\c2ccc3nccnc3c2)S1 | 106 ± 1.9% | 114 ± 1.2% | 120.5 ± 1.1% | 108 ± 7.8% | 105.2 ± 0.38% | 110 ± 3.2% | 100.2 ± 0.99% | 96.5 ± 2.7% | 98.02 ± 0.75% | 100 ± 1.5% | 99.5 ± 1.9% | 98.8 ± 1.3% |
| COC(=O)C1=C(C)NC(C)=C(C(=O)OCCN2CCN(C(c3ccccc3)c3ccccc3)CC2)C1c1cccc([N+](=O)[O-])c1 (stereo not given) [Manidipine] | 101 ± 4% | 102 ± 1.7% | 99.9 ± 1.5% | 97.7 ± 1.7% | 93.8 ± 1.4% | 96.95 ± 0.61% | 109 ± 3.1% | 108 ± 2.9% | 106 ± 2% | 108 ± 2.5% | 103 ± 2.2% | 101 ± 6.2% |
| CN1CCCC(n2nc(Cc3ccc(Cl)cc3)c3ccccc3c2=O)CC1 (stereo not given) [Azelastine HCl (Astelin)] | 111 ± 0.65% | 114 ± 4.5% | 103 ± 4.9% | 109 ± 1.6% | 106.8 ± 0.17% | 90.43 ± 0.82% | 101 ± 3.8% | 92.3 ± 4.6% | 98.15 ± 0.86% | 100 ± 6.5% | 102 ± 2.2% | 68.28 ± 0.32% |
| COC(=O)[C@@H]1[C@H]2C[C@H]3c4[nH]c5ccccc5c4CCN3C[C@@H]2CC[C@@H]1O [Yohimbine HCl] | 106 ± 2.6% | 104 ± 1.2% | 104 ± 2.2% | 100.9 ± 0.15% | 100 ± 5.2% | 100 ± 2.6% | 104 ± 3.8% | 105 ± 3.1% | 105 ± 3.5% | 97 ± 3% | 99.4 ± 4.7% | 96.5 ± 3.8% |
| O=c1cc(-c2ccc(O)cc2)oc2cc(O)cc(O)c12 [Apigenin] | 90.7 ± 0.81% | 105 ± 2.6% | 110 ± 2.2% | 113 ± 5.3% | 111 ± 2.9% | 112 ± 5.7% | 112 ± 4.7% | 128 ± 1.4% | 108.9 ± 0.2% | 115 ± 4.3% | 111 ± 4.9% | 125 ± 4% |
| O=C(Nc1cccnc1)N1CCC(Cc2cccc(Oc3ccc(C(F)(F)F)cn3)c2)CC1 [PF-3845] | 104 ± 3.4% | 103 ± 2.9% | 104 ± 1.5% | 102.11 ± 0.087% | 102 ± 3.6% | 98.8 ± 1.6% | 110 ± 5.4% | 116 ± 8.3% | 112.64 ± 0.013% | 109 ± 4.7% | 116.1 ± 0.73% | 103 ± 1.1% |
| Cc1cccc(-c2[nH]c(C(C)(C)C)nc2-c2ccc3nccnc3c2)n1 | 115.4 ± 0.35% | 111 ± 2.5% | 101.9 ± 0.66% | 108.6 ± 0.23% | 105 ± 2.2% | 38.9 ± 2.9% | 98.4 ± 1.4% | 99.6 ± 2.7% | 97.58 ± 0.26% | 95.9 ± 2.7% | 97.18 ± 0.62% | 83.8 ± 1.5% |
| Cc1ccccc1-n1c(Cn2ncc3c(N)ncnc32)nc2cccc(C)c2c1=O [PIK-293] | 75.5 ± 1.2% | 114 ± 4.8% | 108 ± 1.3% | 118.8 ± 0.73% | 111.4 ± 0.27% | 108 ± 5.3% | 99.57 ± 0.92% | 99.6 ± 1.1% | 98.74 ± 0.94% | 98.35 ± 0.28% | 98.9 ± 1.9% | 94.1 ± 1.5% |
| CN1CCN(c2c(F)cc3c(=O)c(C(=O)O)cn(CCF)c3c2F)CC1 [Fleroxacin (Quinodis)] | 104 ± 1.2% | 111 ± 3.5% | 102 ± 2.7% | 91.53 ± 0.47% | 90.9 ± 1.1% | 91.6 ± 4.7% | 96.7 ± 2.6% | 92.52 ± 0.83% | 92.3 ± 1.4% | 98.4 ± 1.5% | 105 ± 5% | 109 ± 1.7% |
| COc1cc(Nc2ncc(F)c(Nc3ccc4c(n3)N(COP(=O)(O)O)C(=O)C(C)(C)O4)n2)cc(OC)c1OC | 111.5 ± 1.1% | 107.4 ± 0.97% | 106.9 ± 0.48% | 94.91 ± 0.5% | 87.5 ± 2% | 57.13 ± 0.27% | 103 ± 1.3% | 104.7 ± 0.53% | 101 ± 1.2% | 102 ± 5% | 78.9 ± 2.7% | 14.7 ± 0.48% |
| CC(C)(C)c1cc(C(C)(C)C)c(NC(=O)c2c[nH]c3ccccc3c2=O)cc1O [VX-770] | 97.8 ± 4.5% | 104 ± 5.4% | 116 ± 2.3% | 119 ± 3.2% | 111 ± 3.6% | 59.3 ± 16% | 101 ± 4.3% | 117 ± 6.1% | 114 ± 4.1% | 110 ± 3.3% | 112 ± 2.9% | 32.3 ± 8.3% |
| CC(C)(C)C#Cc1cc(N(C(=O)[C@H]2CC[C@H](C)CC2)[C@H]2CC[C@H](O)CC2)c(C(=O)O)s1 [VX-222] | 109 ± 1.1% | 117.11 ± 0.037% | 111 ± 2% | 111 ± 1.3% | 103 ± 4.3% | 106 ± 4.4% | 105.5 ± 0.52% | 102.7 ± 0.81% | 100 ± 1.2% | 99.76 ± 0.98% | 104 ± 4.7% | 105.42 ± 0.075% |
| CNC(=O)c1cc(Oc2ccc(NC(=O)Nc3ccc(Cl)c(C(F)(F)F)c3)cc2)ccn1 [Sorafenib Tosylate] | 90.38 ± 0.54% | 99.7 ± 5.4% | 113 ± 6.4% | 110.1 ± 0.44% | 127 ± 1.7% | 82.2 ± 13% | 97.89 ± 0.32% | 102 ± 2% | 106 ± 1.2% | 102 ± 1.9% | 102 ± 1.6% | 44.5 ± 3.4% |
| NC(=O)c1ccc(I)c([N+](=O)[O-])c1 [BSI-201] | 136 ± 2.7% | 130 ± 0.89% | 126.6 ± 0.33% | 116.12 ± 0.099% | 113.7 ± 0.28% | 110 ± 3.1% | 108 ± 2.5% | 103 ± 1.1% | 105.9 ± 0.65% | 102 ± 1.9% | 100.5 ± 0.3% | 102.3 ± 0.13% |
| c1ccc2c(CC3=NCCN3)cccc2c1 [Naphazoline HCl] | 122 ± 2.4% | 109 ± 2.6% | 117 ± 3% | 111 ± 3.6% | 106.3 ± 0.15% | 112 ± 1.5% | 103 ± 2% | 105.1 ± 0.24% | 103 ± 1.7% | 99.2 ± 5.5% | 104 ± 0.12% | 101.3 ± 0.62% |
| Nc1nc(=O)[nH]cc1F [Flucytosine (Ancobon)] | 92.9 ± 2.9% | 99.4 ± 1.2% | 103.85 ± 0.042% | 102.2 ± 0.19% | 98.4 ± 4.1% | 92.5 ± 3.2% | 105.5 ± 0.24% | 101 ± 3.4% | 104.5 ± 0.84% | 106 ± 1.2% | 103 ± 1.4% | 98.9 ± 4.4% |
